Results: ChEMBL document CHEMBL1201862, “PubChem BioAssay data set” (2004)
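Protocol summary: plate cells (96-well), add compound at 5 concentrations, incubate 48 h, interpolate endpoints linearly. Abbreviation: GI50, concentration required for 50% inhibition of growth.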 Activity calls are given as the source filed them. Cut-off read from the data, not from the text of the source: active = GI50 up to about 1.1 µM and inactive = higher. Where a SMILES comes first, the peptide text is derived from it. The star is where a group is joined. Fmoc = O=C(OCC1c2ccccc2-c2ccccc21)*; Boc = CC(C)(C)OC(=O)*

Experiments:
Assay in all cases: NCI anticancer screen, dose series, 48 h
[1] = test system: HL-60
[2] = test system: SF-295
[3] = test system: MDA-MB-231
[4] = test system: A498
[5] = test system: T47D
[6] = test system: MOLT-4
[7] = test system: MDA-N
[8] = test system: OVCAR-3
[9] = test system: SN12C
[10] = test system: NCI-H522
[11] = test system: HOP-92
[12] = test system: MDA-MB-435
[13] = test system: UO-31
[14] = test system: ACHN
[15] = test system: OVCAR-5
[16] = test system: SNB-75
[17] = test system: HOP-62
[18] = test system: PC-3
[19] = test system: EKVX
[20] = test system: HCC 2998

| Compound | GI50 [1] | GI50 [2] | GI50 [3] | GI50 [4] | GI50 [5] | GI50 [6] | GI50 [7] | GI50 [8] | GI50 [9] | GI50 [10] | GI50 [11] | GI50 [12] | GI50 [13] | GI50 [14] | GI50 [15] | GI50 [16] | GI50 [17] | GI50 [18] | GI50 [19] | GI50 [20] |
| --- | --- | --- | --- | --- | --- | --- | --- | --- | --- | --- | --- | --- | --- | --- | --- | --- | --- | --- | --- | --- |
| O=[N+]([O-])c1cc(Cl)cc2c1nc(NCCO)c1ccccc12 | 3.5 µM (inactive) | 13.1 µM (inactive) | 21.1 µM (inactive) | 10.3 µM (inactive) | 20.3 µM (inactive) | 3.78 µM (inactive) | 4.62 µM (inactive) | 12.1 µM (inactive) | 6.17 µM (inactive) | 13.6 µM (inactive) | 15.6 µM (inactive) | 6.17 µM (inactive) | 24.1 µM (inactive) | 6.43 µM (inactive) | 9.18 µM (inactive) | 20.4 µM (inactive) | 7.24 µM (inactive) | 4.97 µM (inactive) | 6.21 µM (inactive) |  |
| O=C(O)c1c(-c2nccc3ccccc23)[nH]c(-c2ccccc2)c1S(=O)(=O)O | 41.8 µM (inactive) | > 100 µM (inactive) | > 100 µM (inactive) | > 100 µM (inactive) | > 100 µM (inactive) | 47.6 µM (inactive) | > 100 µM (inactive) | > 100 µM (inactive) | > 100 µM (inactive) | > 100 µM (inactive) | > 100 µM (inactive) | > 100 µM (inactive) | > 100 µM (inactive) | > 100 µM (inactive) | > 100 µM (inactive) | > 100 µM (inactive) | > 100 µM (inactive) | > 100 µM (inactive) | 21.8 µM (inactive) |  |
| COc1ccc(/C=N/n2c(Cc3ccccc3)n[nH]c2=O)cc1 |  | 39.8 µM (inactive) | 22.6 µM (inactive) | 32.4 µM (inactive) | > 100 µM (inactive) | > 100 µM (inactive) | > 100 µM (inactive) | > 100 µM (inactive) | > 100 µM (inactive) |  |  | > 100 µM (inactive) | > 100 µM (inactive) | > 100 µM (inactive) | > 100 µM (inactive) | > 100 µM (inactive) | 69.3 µM (inactive) | > 100 µM (inactive) | > 100 µM (inactive) | > 100 µM (inactive) |
| O=C1N[C@H]2c3c(Cl)sc(Cl)c3[C@@H](O)[C@H]2O1 | > 100 µM (inactive) |  | > 100 µM (inactive) | > 100 µM (inactive) | > 100 µM (inactive) | > 100 µM (inactive) | > 100 µM (inactive) | > 100 µM (inactive) | > 100 µM (inactive) |  |  | > 100 µM (inactive) | > 100 µM (inactive) | > 100 µM (inactive) | > 100 µM (inactive) | > 100 µM (inactive) | > 100 µM (inactive) | > 100 µM (inactive) | > 100 µM (inactive) | > 100 µM (inactive) |
| CC[N+]1(C)CCC(O)(c2ccc(Cl)c(Cl)c2)C(C(=O)c2ccc(Cl)c(Cl)c2)C1 (centres undefined) | > 10 µM (inactive) | > 10 µM (inactive) |  | > 10 µM (inactive) | > 10 µM (inactive) | > 10 µM (inactive) | > 10 µM (inactive) | > 10 µM (inactive) | > 10 µM (inactive) | 3.08 µM (inactive) | > 10 µM (inactive) |  | > 10 µM (inactive) | > 10 µM (inactive) | > 10 µM (inactive) | > 10 µM (inactive) | > 10 µM (inactive) | > 10 µM (inactive) | > 10 µM (inactive) | > 10 µM (inactive) |
| CSC1=NN(c2ccccc2)C(=O)C1=C(SC)SC | 15.9 µM (inactive) |  | 14.3 µM (inactive) | 13.3 µM (inactive) | 18.2 µM (inactive) | 26 µM (inactive) | 30.7 µM (inactive) | 42.6 µM (inactive) | 28.4 µM (inactive) | 2.44 µM (inactive) |  | 31.9 µM (inactive) | 12.1 µM (inactive) |  | 31.6 µM (inactive) | 27.4 µM (inactive) |  | 15.1 µM (inactive) | 27.7 µM (inactive) | 25.6 µM (inactive) |
| COC(=O)[C@H](C)N(C)C(=O)[C@H](C)N1[C@@H](c2ccccc2)COC1(C)C | > 100 µM (inactive) | > 100 µM (inactive) | > 100 µM (inactive) | > 100 µM (inactive) | > 100 µM (inactive) | > 100 µM (inactive) | > 100 µM (inactive) | > 100 µM (inactive) |  | > 100 µM (inactive) | > 100 µM (inactive) | > 100 µM (inactive) | > 100 µM (inactive) | > 100 µM (inactive) | > 100 µM (inactive) | 92.7 µM (inactive) | > 100 µM (inactive) | > 100 µM (inactive) | > 100 µM (inactive) |  |
| NC(=O)C1CCN(Cc2c(Cl)c(Cl)c(CN3CCC(C(N)=O)CC3)c(Cl)c2Cl)CC1 | > 100 µM (inactive) | 23.7 µM (inactive) | 28.8 µM (inactive) | 28.3 µM (inactive) | > 100 µM (inactive) | > 100 µM (inactive) |  | > 100 µM (inactive) | > 100 µM (inactive) | > 100 µM (inactive) | 67.1 µM (inactive) | > 100 µM (inactive) | 63.5 µM (inactive) | > 100 µM (inactive) | > 100 µM (inactive) | 24.3 µM (inactive) | 11.6 µM (inactive) | > 100 µM (inactive) | 38.6 µM (inactive) | > 100 µM (inactive) |
| CC(C(=O)NCNC(=O)c1ccccc1)C(=O)NCc1ccccc1 (centres undefined) | > 100 µM (inactive) | > 100 µM (inactive) | > 100 µM (inactive) |  | > 100 µM (inactive) | > 100 µM (inactive) | > 100 µM (inactive) |  | > 100 µM (inactive) | 99.3 µM (inactive) | > 100 µM (inactive) | > 100 µM (inactive) | > 100 µM (inactive) | > 100 µM (inactive) | > 100 µM (inactive) | > 100 µM (inactive) |  | > 100 µM (inactive) | > 100 µM (inactive) |  |
| c1csc(-c2ccc(-c3cccs3)c3nsnc23)c1 | 5.4 µM (inactive) | 42.3 µM (inactive) | 22.4 µM (inactive) | > 100 µM (inactive) | 0.141 µM (active) | 8.89 µM (inactive) | 17.9 µM (inactive) | 2.04 µM (inactive) | > 60.3 µM (inactive) | > 100 µM (inactive) | 35 µM (inactive) | 31.4 µM (inactive) | 43.4 µM (inactive) | > 65.2 µM (inactive) |  | 19.7 µM (inactive) | 35.6 µM (inactive) | > 54 µM (inactive) | 2.23 µM (inactive) |  |
| O=C(CC(C(=O)c1cccs1)c1ccsc1)c1ccco1 (centres undefined) | 15.4 µM (inactive) | 39.7 µM (inactive) |  | 27.5 µM (inactive) | 24.7 µM (inactive) | > 100 µM (inactive) | 27.7 µM (inactive) | 54.8 µM (inactive) | 35.5 µM (inactive) | 20 µM (inactive) | > 100 µM (inactive) | 20.3 µM (inactive) | 21.2 µM (inactive) | 32.3 µM (inactive) | 11.5 µM (inactive) | 28 µM (inactive) | 64.1 µM (inactive) |  | 24.8 µM (inactive) | 36 µM (inactive) |
| COc1ccc(C2c3c(-c4ccccc4)nn(-c4ccccc4)c3Oc3ncn(N)c(=N)c32)cc1OC (centres undefined) | 2.62 µM (inactive) | 2.05 µM (inactive) | 1.71 µM (inactive) | 7.16 µM (inactive) | 1.97 µM (inactive) | 3.41 µM (inactive) |  | 1.63 µM (inactive) | 2.51 µM (inactive) | 2.21 µM (inactive) | 2.33 µM (inactive) | 1.85 µM (inactive) | 1.68 µM (inactive) | 1.86 µM (inactive) | 3.9 µM (inactive) | 1.62 µM (inactive) | 1.77 µM (inactive) | 1.95 µM (inactive) | 1.91 µM (inactive) | 1.74 µM (inactive) |
| O=C(Nc1ccn(C2CCC(CO)O2)c(=O)n1)c1ccccc1 (centres undefined) | > 100 µM (inactive) | > 100 µM (inactive) | > 100 µM (inactive) | 50.4 µM (inactive) | > 100 µM (inactive) | > 100 µM (inactive) | > 100 µM (inactive) |  | > 100 µM (inactive) | > 100 µM (inactive) |  | > 100 µM (inactive) | > 100 µM (inactive) | > 100 µM (inactive) | > 100 µM (inactive) | 79.6 µM (inactive) | > 100 µM (inactive) | > 100 µM (inactive) | > 100 µM (inactive) | > 100 µM (inactive) |
| CN(CCC(=O)O)C1=Nc2ccc(Cl)cc2C(c2ccccc2)=[N+]([O-])C1 | > 100 µM (inactive) | > 100 µM (inactive) | > 100 µM (inactive) | > 100 µM (inactive) | > 100 µM (inactive) | > 100 µM (inactive) | > 100 µM (inactive) | > 100 µM (inactive) | > 100 µM (inactive) | > 100 µM (inactive) | > 100 µM (inactive) | 86.1 µM (inactive) | > 100 µM (inactive) | > 100 µM (inactive) | > 100 µM (inactive) | > 100 µM (inactive) | > 100 µM (inactive) | > 100 µM (inactive) | > 100 µM (inactive) |  |
| CC(C)(C)OC(=O)NCCCCC(NC(=O)OCC1c2ccccc2-c2ccccc21)C(=O)N1CCCC1C(=O)NCC(N)=O (stereo not drawn) (Fmoc-Lys(Boc)-Pro-Gly-NH2; configuration not given here) | 32.8 µM (inactive) | 78.3 µM (inactive) | 46.7 µM (inactive) |  | 24.7 µM (inactive) | 29.5 µM (inactive) | 19.3 µM (inactive) | 45.1 µM (inactive) | 16.2 µM (inactive) |  | 20.4 µM (inactive) | 27.6 µM (inactive) | 15.3 µM (inactive) | 17.9 µM (inactive) | > 100 µM (inactive) | 7.6 µM (inactive) | 89.1 µM (inactive) | 27.9 µM (inactive) | 76.2 µM (inactive) | 58.2 µM (inactive) |
